The values below come from patent US5677329A, “Styryl-substituted monocyclic and bicyclic heteroaryl compounds which inhibit EGF receptor tyrosine kinase” (Rhone-Poulenc Rorer Pharmaceuticals, Inc., priority 1995, dated 1997).

Entries after “also recorded” stand apart in the source; their conditions may differ. Like-named read-outs stand apart in the source and are kept apart here.

The test system of one assay is other protein kinases. Conditions: cited from earlier work.
For a further assay, the target named is T1, EGFR (Homo sapiens, UniProt P00533).
T1 construct: endogenous in cells; host or cells: A431 cells (detergent lysate, anti-EGF-R Ab 108 immunoprecipitate)
As to the kind of experiment: Inhibition of EGFR autophosphorylation (anti-EGF-R immunoprecipitate from A431 cells, EGF stimulation). It counts as biochemical. Particulars: for Relative inhibition of EGF receptor kinase, in words: comparison from Table V. Here is the method:
Inhibition of EGFR Autophosphorylation A431 cells were grown to confluence on human fibronectin coated tissue culture dishes. […] The reaction was stopped by adding hot electrophoresis sample buffer. […] "IC50," as used below, refers to the concentration of inhibitor (μM) at which the rate of autophosphorylation is halved, compared with media containing no inhibitor. […] The EGFR autophosphorylation inhibition was evaluated using the same procedure as described hereinbefore.

The next assay deals with PDGF receptor kinase. As to the kind of experiment: Inhibition of autophosphorylation, procedure repeated with PDGF stimulation. It is filed as biochemical. Conditions: Table III.
Assay [1] relates to EGF receptor. As to the kind of experiment: ATP dependence of EGF-receptor autophosphorylation (10-s assay). It counts as biochemical. Conditions: 15° C., read-out: Km for ATP in EGFR autophosphorylation. The procedure: EGF-Receptor Purification
EGF-receptor purification is based on the procedure of Yarden and Schlessinger. A431 cells are grown in 80 cm^2 bottles to confluency (2×10^7 cells per bottle). The cells are washed twice with PBS and harvested with PBS containing 1.0 mmol EDTA (1 hour at 37° C.), and centrifuged at 600 g for 10 minutes. The cells are solubilized in 1 ml per 2×10^7 cells of cold solubilization buffer (50 mmol Hepes buffer, pH 7.6, 1% Triton X-100, 150 mmol NaCl, 5 mmol EGTA, 1 mmol PMSF, 50 μg/ml aprotinin, 25 mmol benzamidine, 5 μg/ml leupeptic, and 10 μg/ml soybean trypsin inhibitor) for 20 minutes at 4° C. After centrifugation at 100000 g for 30 minutes, the supernatant is loaded onto a WGA-agarose column (100 μl of packed resin per 2×10^7 cells) and shaken for 2 hours at 4° C. The unabsorbed material is removed and the resin washed twice with HTN buffer (50 mmol Hepes, pH 7.6, 0.1% Triton X-100, 150 mmol NaCl), twice with HTN buffer containing 1M NaCl, and twice with HTNG buffer (50 mmol Hepes, pH 7.6, 0.1% Triton X-100, 150 mmol NaCl, and 10% glycerol). The EGF receptor is eluted batchwise with HTNG buffer containing 0.5M N-acetyl-D-glucosamine (200 μl per 2×10^7 cells). The eluted material is stored in aliquots at -70° C. and diluted before use with TMTNG buffer (50 mmol Tris-Mes buffer, pH 7.6, 0.1% Triton X-100, 150 mmol NaCl, 10% glycerol).

For assay [2], the system named is DNA synthesis in PDGF-stimulated cells. As to the kind of experiment: Inhibition of cell proliferation as measured by inhibition of DNA synthesis ([3H]thymidine incorporation), PDGF-stimulated cells. It counts as cell-based. Particulars: Table IV; PDGF stimulation; [3H]thymidine incorporation halved. Here is the method:
(§1) Inhibition of Cell Proliferation as Measured by Inhibition of DNA Synthesis Cells were seeded at 1×10^5 cells per well in 24-well Costar dishes pre-coated with human fibronectin (by incubating for 30 minutes at room temperature with 10 μg/0.5 ml/well). The cells were grown to confluence for 2 days. The medium was changed to DMEM containing […] for 36-48 hours and the cells were then incubated with PDGF, EGF (Toyobo, New York, N.Y.) (20 ng/ml) or serum (10% calf serum, FCS) and different concentrations of the inhibitory compounds. [^3 H]thymidine,(NEN, Boston, Mass.) was added 16-24 hours later at 0.5 μCi/ml for 2 hours. TCA precipitable material was quantitated by scintillation counting (C).
On the technique in general: Uptake of a labelled nucleoside into DNA is a usual measure of proliferation.

For assay [3], the system named is DNA synthesis in serum (FCS)-stimulated cells. As to the kind of experiment: Inhibition of cell proliferation as measured by inhibition of DNA synthesis ([3H]thymidine incorporation), serum (10% FCS)-stimulated cells. It counts as cell-based. Particulars: 10% calf serum (FCS); for IC50: Table IV, [3H]thymidine incorporation halved; for inhibition at 1 µM: read-out: Inhibition of [3H]thymidine incorporation, FCS (printed in the IC50 - FCS column). The procedure:
as §1

Assay [4] deals with cyclic adenosine 3', 5'-monophosphate (cAMP)-dependent protein kinase. Particulars: compared with EGF receptor autophosphorylation; cited from earlier work.
Assay [5] deals with EGF receptor. Particulars: membranes of A431 cells; cited from earlier work.
The mark [6] stands for this setting: Table III, EGF stimulation, autophosphorylation 2 min at 4° C., read-out: IC50 EGF.
Where [7] appears, read: Table V, comparison with prior art compound C-1, same procedure as before, read-out: IC50, inhibition of EGFR autophosphorylation (Table V).

T1 sequence (P00533 25-1210): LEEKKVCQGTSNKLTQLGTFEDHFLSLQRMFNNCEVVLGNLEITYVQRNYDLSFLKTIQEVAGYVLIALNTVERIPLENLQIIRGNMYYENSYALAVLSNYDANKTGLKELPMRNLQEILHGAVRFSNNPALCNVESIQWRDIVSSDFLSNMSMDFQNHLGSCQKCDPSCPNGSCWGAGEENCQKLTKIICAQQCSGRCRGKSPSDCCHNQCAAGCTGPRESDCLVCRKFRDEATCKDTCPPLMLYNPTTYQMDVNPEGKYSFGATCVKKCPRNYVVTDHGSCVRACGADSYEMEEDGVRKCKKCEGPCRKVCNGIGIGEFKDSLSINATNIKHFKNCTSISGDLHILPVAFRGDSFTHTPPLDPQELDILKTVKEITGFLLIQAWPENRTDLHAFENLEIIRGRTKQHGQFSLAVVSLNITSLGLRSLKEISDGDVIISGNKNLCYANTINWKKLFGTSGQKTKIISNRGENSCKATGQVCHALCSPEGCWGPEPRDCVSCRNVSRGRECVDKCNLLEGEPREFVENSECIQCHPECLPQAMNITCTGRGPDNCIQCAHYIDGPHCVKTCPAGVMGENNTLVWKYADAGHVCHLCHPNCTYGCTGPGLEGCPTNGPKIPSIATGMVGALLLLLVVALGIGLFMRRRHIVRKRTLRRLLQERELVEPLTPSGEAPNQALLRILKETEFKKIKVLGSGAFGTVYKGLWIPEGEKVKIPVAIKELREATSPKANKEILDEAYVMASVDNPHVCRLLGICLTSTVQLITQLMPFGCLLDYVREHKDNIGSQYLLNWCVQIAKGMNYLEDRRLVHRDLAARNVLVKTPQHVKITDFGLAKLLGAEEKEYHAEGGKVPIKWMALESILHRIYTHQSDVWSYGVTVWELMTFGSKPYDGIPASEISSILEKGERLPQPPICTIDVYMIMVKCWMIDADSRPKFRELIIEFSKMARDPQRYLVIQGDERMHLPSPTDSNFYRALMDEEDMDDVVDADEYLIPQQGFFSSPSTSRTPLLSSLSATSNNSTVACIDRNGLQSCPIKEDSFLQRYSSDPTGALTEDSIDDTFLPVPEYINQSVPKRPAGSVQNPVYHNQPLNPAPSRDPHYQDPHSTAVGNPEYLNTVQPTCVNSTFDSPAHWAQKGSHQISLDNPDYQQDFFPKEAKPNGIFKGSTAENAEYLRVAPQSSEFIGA

Regarding `O=c1c(-c2ccc(O)cc2)coc2cc(O)cc(O)c12` [genistein], in the assay on other protein kinases, the “Competition with ATP; inhibition of other protein kinases, in words” value was “compete with ATP, inhibit other protein kinases”.

`COc1ccc(C=C(C#N)c2cccnc2)cc1OC` [Example 7, 2-(3-Pyridyl)-3-(3,4-dimethoxyphenyl)-2-propenenitrile]: the 50% inhibitory concentration (IC50) was determined as 400 nM on EGFR (setting [6]) and 30000 nM on PDGF receptor kinase.

With `Nc1ncnc2c1ncn2[C@@H]1O[C@H](COP(=O)(O)OP(=O)(O)OP(=O)(O)O)[C@@H](O)[C@H]1O` [ATP, adenosine triphosphate], the Michaelis-Menten constant (Km) with EGF receptor [1] amounted to 7.2 µM.

Consider `O=c1c(O)c(-c2ccc(O)c(O)c2)oc2cc(O)cc(O)c12` [quercetin], for which the “Competition with ATP; inhibition of other protein kinases, in words” value with other protein kinases is reported as “compete with ATP, inhibit other protein kinases”.

For the molecule `CC(C)(C)c1cc(C=C(C#N)c2ccccn2)cc(C(C)(C)C)c1` [Example 4, 2-(2-Pyridyl)-3-(3,5-di-tert-butylphenyl)-2-propenenitrile], the IC50 was determined as 9 ± 2 nM in assay [2] and 500 nM in assay [3].

`N#CC(=Cc1ccc(Cl)cc1Cl)c1cccnc1` [Example C-1, 2-(3-pyridyl)-3-(2,4-dichlorophenyl)-2-propenenitrile, reference compound]: the IC50 at EGFR (setting [7]) is no less than 50000 nM.

For `N#C/C(=C\c1cc(Cl)cc(Cl)c1)c1cccnc1` [Example 1A, trans-2-(3-Pyridyl)-3-(3,5-dichlorophenyl)-2-propenenitrile], the IC50 on EGFR (setting [7]) amounted to 2000 nM. In addition, the “Relative inhibition of EGF receptor kinase, in words” value is recorded as “more potent inhibitor of EGF receptor kinase than C-1” on EGFR and “much better activity than that of its corresponding N-oxide” on EGFR (listed as 1-A).

Take `COc1ccc(C=C(C#N)c2ccccn2)cc1OC` [Example 3, 2-(2-Pyridyl)-3-(3,4-dimethoxyphenyl)-2-propenenitrile]: the IC50 amounted to 500 nM at EGFR (setting [6]), 6000 nM at PDGF receptor kinase and 14 ± 10 nM in assay [2]. Also, in assay [3], the inhibition at 1 µM was determined as 27 ± 5%.

As to `COc1ccc(C=C(C#N)c2cn(S(=O)(=O)c3ccc([N+](=O)[O-])cc3)c3ccccc23)cc1OC` [Example 6, 2-[1-(4-Nitrophenylsulfonyl)indol-3-yl]-3-(3,4-dimethoxyphenyl)-2-propenenitrile], the IC50 is 20000 nM at EGFR (setting [6]), greater than 50000 nM at PDGF receptor kinase and 17 nM in assay [2]. Also, the inhibition at 1 µM in assay [3] was found to be 15%.

Take `N#C/C(=C\c1cc(Cl)cc(Cl)c1)c1ccc[n+]([O-])c1` [Example 2, trans-2-(3-pyridyl)-3-(3,5-dichlorophenyl)-2-propenenitrile, N-oxide]: the IC50 is 100 nM at EGFR (setting [6]); no less than 50000 nM on EGFR (setting [7]); 20000 nM at PDGF receptor kinase; 30 ± 17 nM in assay [2]; 100 nM in assay [3].

On to `O=CN/C=C/c1cc(O)ccc1O` [erbstatin], for which the “Concentrations required to inhibit cAMP-dependent protein kinase, in words” value in assay [4] was “much higher concentrations of erbstatin are required”. In addition, in the assay with EGF receptor [5], the “Inhibition of EGF receptor autophosphorylation, in words” value is “inhibits the autophosphorylation of the EGF receptor; also recorded: Low concentrations of erbstatin are required to inhibit EGF receptor autophosphorylation”.

`COc1ccc(C=C(C#N)c2c[nH]c3ccccc23)cc1OC` [Example 5, 2-(3-Indolyl)-3-(3,4-dimethoxyphenyl)-2-propenenitrile]: the IC50 on EGFR (setting [6]) was 400 nM; against PDGF receptor kinase, 10000 nM.

Usually IC50 stands for the concentration that inhibits the measured activity by half. The term Km denotes the substrate concentration at which the rate is half of its maximum.
